Results from patent US9226891B2, “Anti-flush compositions” (Vitalis LLC, priority 2011, dated 2016).

Experiments:
[1] = system: flushing side effect of niacin; experiment: Example 1: flush rating on the Global Flush Severity Scale (GFSS) after niacin, with or without aspirin; assay type: in vivo, human; conditions: for reduction of flush severity (GFSS) from Period I: vs niacin alone
Procedure: Healthy human patients were recruited for this study. […] Each patient was asked to rate his or her flush on the Global Flush Severity Scale (GFSS) (see FIG. 1 and Paolini et al. Int. J. Clin. Pract. 62(6):896-904 (2008)), when the flush completely resolved. The Global Flushing Severity Score measures, overall, in the previous 24 hours, how each patient rates the flushing symptoms, including redness, warmth, tingling, and itchiness of the skin. […] After the flush completely resolved, then each patient recorded his or her GFSS flush rating. Not until at least two days later did Period III start. At Period III, each patient was asked to not swallow the orally administered aspirin (81 mg) but to allow the aspirin to be absorbed through the oral mucosa. The aspirin was in powdered form and the remaining aspirin in the mouth was washed out with water. […] Still, the flush was rated (GFSS) after it was resolved. […] The flush was then rated (GFSS) after it completely resolved.

[2] = GI-absorbed aspirin; cited from earlier work

SMILES: CC(=O)Oc1ccccc1C(=O)O [aspirin]
- reduction of flush severity (GFSS) from Period I ([1]; Period II: 81 mg aspirin swallowed + 500 mg niacin): 18%
- Global Flush Severity Scale (GFSS) average score ([1]; Period II: 81 mg aspirin swallowed, followed by 500 mg niacin): 6.88
- Global Flush Severity Scale (GFSS) average score ([1]; Period III: 81 mg aspirin mucosally absorbed (not swallowed), then 500 mg niacin): 5.06
- reduction of flush severity (GFSS) from Period I ([1]; Period III: 81 mg aspirin mucosally absorbed + 500 mg niacin): 40%
- Global Flush Severity Scale (GFSS) average score ([1]; Period IV: 81 mg aspirin half mucosally absorbed and half swallowed, then 500 mg niacin): 3.94
- reduction of flush severity (GFSS) from Period I ([1]; Period IV: 81 mg aspirin half mucosally absorbed, half swallowed + 500 mg niacin): 53%
- time to peak aspirin serum level following administration [2]: 15 to 20 min
